Assay results as given in patent US11684591B2, “Use of a GABAA receptor allosteric enhancer in medicine” (XI'AN LIBANG ZHAOXIN BIOTECHNOLOGY CO., LTD., priority 2018, dated 2023).

Experiments:
[1] = Distribution in brain tissues after intravenous administration in rats (LC-MS/MS); format: in vivo, SD rats
Method: 1. Comparative Test of the Distribution in Brain Tissues of Compound 1 and Dipropofol (3,3′, 5,5′-Tetraisopropyl-4,4′-Biphenol) after Intravenous Administration in Rats
72 SD rats, weighing 200 to 220 g, were randomly divided into 12 groups (6 per time group), and fasted for 12 h before administration. A dose of 45 mg/kg was intravenously administered with Compound 1 or the dipropofol respectively, and the rates were sacrificed at 5 min, 15 min, 30 min, 1 h, 2 h and 4 h after the administration. The brain tissues were removed immediately, rinsed with ice-cold distilled water, blotted dry, and frozen at −40° C. for storage. The concentration of Compound 1 or the dipropofol in the brain tissues at different points in time after administration in rats was measured by LC-MS/MS, as shown in Table 1 and FIG. 1.

[2] = test system: GABAA, Chloride Channel, TBPS; experiment: [35S]TBPS radioligand receptor competitive binding test; set-up: species or system rats; conditions: [35S]TBPS competitive binding
Method: 2. In Vitro GABAA Receptor Target Affinity Test
A radioligand ([^35S] TBPS) receptor competitive binding test was used to evaluate the affinity of the test compound (10 uM) with GABAA receptors.

[3] = test system: PTZ-induced tonic-clonic seizures; experiment: Antiepileptic test in rats with PTZ-induced seizures; format: in vivo, male SD rats; set-up: key to Seizure Intensity (total score of 7 animals): summed score: grade V = 5, IV = 4, III = 3, below III = 0; conditions: 45 mg/kg i.v.; for Number of episodes (animals), grade III / Number of episodes (animals), grade IV / Number of episodes (animals), grade V / Seizure Intensity (total score of 7 animals): n = 7
Method: 3. Antiepileptic Test of Compounds 1 and Dipropofol (3,3′, 5,5′-Tetraisopropyl-4,4′-Biphenol) in Rats with PTZ-Induced Seizures
In this test, male SD rats (Xi'an Jiaotong University), weighing 200 to 250 g, were used and intravenously administrated with 45 mg/kg of a Dipropofol injection, a Compound 1 injection, and blank solvent of the same volume. 1, 3, 5, 10, 15, 30, 60, 90 mins, and 120 mins after the intravenous administration, 70 mg/kg of PTZ was intraperitoneally injected in the rats to induce tonic-clonic seizures. 7 rats were used for each time point in each drug group. Rat seizure intensity was recorded in accordance with the Racine grading criteria in grade III to V seizure status. Scores were recorded according to the seizure intensity: 5 points for grade V, 4 points for grade IV, 3 points for grade III, and 0 point for below grade III.

[4] = PTZ 70 mg/kg i.p. 1 min after administration
[5] = PTZ 70 mg/kg i.p. 3 min after administration
[6] = PTZ 70 mg/kg i.p. 5 min after administration
[7] = PTZ 70 mg/kg i.p. 10 min after administration
[8] = PTZ 70 mg/kg i.p. 15 min after administration
[9] = PTZ 70 mg/kg i.p. 30 min after administration
[10] = PTZ 70 mg/kg i.p. 60 min after administration
[11] = PTZ 70 mg/kg i.p. 90 min after administration
[12] = PTZ 70 mg/kg i.p. 120 min after administration

AUC0-4h in the brain tissues relative to that of the dipropofol ([1]; 45 mg/kg i.v.): about 1.31 times
Time at which concentration peaked in the brain tissues ([1]; 45 mg/kg i.v.): 15 min
Concentration in the brain tissues relative to that of the dipropofol ([1]; 45 mg/kg i.v., 5 min after administration): 2.75 times
concentration at 5 min ([1]; SD, rat, brain, iv, 45 mg/kg i.v., 5 min after administration, average, read-out: Drug concentration in brain tissues): 35200 ng/g
concentration at 15 min ([1]; SD, rat, brain, iv, 45 mg/kg i.v., 15 min after administration, average, read-out: Drug concentration in brain tissues): 42700 ng/g
concentration at 30 min ([1]; SD, rat, brain, iv, 45 mg/kg i.v., 30 min after administration, average, read-out: Drug concentration in brain tissues): 39800 ng/g
concentration at 1 h ([1]; SD, rat, brain, iv, 45 mg/kg i.v., 1 h after administration, average, read-out: Drug concentration in brain tissues): 32000 ng/g
concentration at 2 h ([1]; SD, rat, brain, iv, 45 mg/kg i.v., 2 h after administration, average, read-out: Drug concentration in brain tissues): 22700 ng/g
concentration at 4 h ([1]; SD, rat, brain, iv, 45 mg/kg i.v., 4 h after administration, average, read-out: Drug concentration in brain tissues): 7750 ng/g
IC50 ([2]; rats, test concentration 30, 10, 3, 1, 0.3 uM): 2930 nM
Structure (SMILES): CCCc1cc(-c2cc(CCC)c(O)c(C(C)C)c2)cc(C(C)C)c1O [Compound 1, 4,4′-dihydroxy-3,3′-diisopropyl-5,5′-dipropylbiphenyl]
Brain entry rate and brain intake amount compared with dipropofol ([1]; same i.v. dose): significantly higher brain entry rate and brain intake amount than the dipropofol
Affinity for the GABAA receptors (in words) [2]: high affinity for the GABAA receptors, which affinity is comparable to that of the dipropofol
Number of episodes (animals), grade III [3, 4]: 2
Number of episodes (animals), grade IV [3, 4]: 2
Number of episodes (animals), grade V [3, 4]: 0
Seizure Intensity (total score of 7 animals) [3, 4]: 14
Number of episodes (animals), grade III [3, 5]: 0
Number of episodes (animals), grade IV [3, 5]: 0
Number of episodes (animals), grade V [3, 5]: 0
Seizure Intensity (total score of 7 animals) [3, 5]: 0
Number of episodes (animals), grade III [3, 6]: 0
Number of episodes (animals), grade IV [3, 6]: 0
Number of episodes (animals), grade V [3, 6]: 0
Seizure Intensity (total score of 7 animals) [3, 6]: 0
Number of episodes (animals), grade III [3, 7]: 0
Number of episodes (animals), grade IV [3, 7]: 0
Number of episodes (animals), grade V [3, 7]: 0
Seizure Intensity (total score of 7 animals) [3, 7]: 0
Number of episodes (animals), grade III [3, 8]: 0
Number of episodes (animals), grade IV [3, 8]: 0
Number of episodes (animals), grade V [3, 8]: 0
Seizure Intensity (total score of 7 animals) [3, 8]: 0
Number of episodes (animals), grade III [3, 9]: 0
Number of episodes (animals), grade IV [3, 9]: 0
Number of episodes (animals), grade V [3, 9]: 0
Seizure Intensity (total score of 7 animals) [3, 9]: 0
Number of episodes (animals), grade III [3, 10]: 0
Number of episodes (animals), grade IV [3, 10]: 0
Number of episodes (animals), grade V [3, 10]: 0
Seizure Intensity (total score of 7 animals) [3, 10]: 0
Number of episodes (animals), grade III [3, 11]: 0
Number of episodes (animals), grade IV [3, 11]: 0
Number of episodes (animals), grade V [3, 11]: 0
Seizure Intensity (total score of 7 animals) [3, 11]: 0
Number of episodes (animals), grade III [3, 12]: 0
Number of episodes (animals), grade IV [3, 12]: 0
Number of episodes (animals), grade V [3, 12]: 0
Seizure Intensity (total score of 7 animals) [3, 12]: 0
Time after administration for which the potency can be maintained ([3]; rats): ≥ 120 min
